Columns and labels:
Male Swiss-Webster mice = test: PGE2 test of gut motility (inhibition of morphine's blockade of PGE2-induced diarrhea); format: in vivo
Description: A rodent model of gut motility model (Russell, et al., 1982; Eur. J. Pharm., 78: 255-61) was used to evaluate the bioavailability and efficacy of Compound-1 in […]. The PGE2 test of gut motility evaluates the inhibition of morphine's side effects. PGE2 (a prostaglandin) induces diarrhea in mice within 15 minutes of an intraperitoneal injection (0.1 mg/kg). Morphine (1 mg/kg, IP) blocks this effect. Peripherally-acting opioid antagonists inhibit morphine's blockade of PGE2-induced diarrhea. Male Swiss-Webster mice (n=10/group) were administered Compound-1 or a reference compound 15 minutes (IP or PO) prior to morphine and placed in a Plexiglas pie cage. PGE2 was administered 30 minutes after morphine. Observations of diarrhea were made 15 minutes after PGE2 administration. Duration of action was tested by adjusting the time between Compound-1 and morphine administration. FIGS. 2 and 3 show the effectiveness of reference compound methylnaltrexone (MNTX) and Compounds 1-4 to inhibit opioid-induced delay in gut motility by oral and IP administration.
(NTX represents naltrexone).

[1] = system: patients diagnosed with opioid-induced bowel dysfunction (OBD); test: Multicenter, multi-dose study in patients with opioid-induced bowel dysfunction; format: in vivo, human
Description: In this multicenter, multi-dose study, 87 patients diagnosed with opioid-induced bowel dysfunction (OBD) during treatment with opioids for chronic, non-cancer pain were randomized to receive escalating doses of Compound-1 (1-100 mg), or placebo with a pre-defined dose escalation schedule. […] (FIG. 8).
The mean change from baseline in CSBMs per week for patients receiving 100 mg Compound-1 was 3.6 versus 0.8 in the placebo group (p=0.006), or a net increase of 2.8 CSBMs over placebo.

## C[N+]1(CC2CC2)CC[C@]23CC(=O)CC[C@@]2(O)[C@H]1Cc1ccc(C(N)=O)c(O)c13 (stereo partly drawn) [Compound-1]
Male Swiss-Webster mice; minimal effective PO dose of Compound-1 vs minimal effective IP dose of MNTX, FIG. 7
  duration of action compared with MNTX: longer duration of action than MNTX
Male Swiss-Webster mice; oral administration, FIG. 6
  dose relative to methylnaltrexone at which morphine's effects are blocked: 3 fold lower
Male Swiss-Webster mice; oral administration, FIG. 6, compared with methylnaltrexone
  duration of blocking morphine's effects: up to 4 hours
[1]; 30 mg dose
  change from baseline in number of average spontaneous bowel movements (SBMs) in comparison to placebo: statistically significant increase
[1]; 100 mg
  net increase of CSBMs over placebo: 2.8 CSBMs
[1]; 100 mg dose
  average number of complete spontaneous bowel movements (CSBMs) per week from baseline as compared to placebo: clinically meaningful and statistically significant increase
  change from baseline in number of average spontaneous bowel movements (SBMs) in comparison to placebo: statistically significant increase
[1]; 100 mg once-daily
  net increase of SBMs over placebo: 3.9 SBMs
[1]; 100 mg once-daily, placebo 0.7, p=0.003
  mean change from baseline in the average number of SBMs per week: 4.6 SBMs per week
[1]; 100 mg, placebo 0.8, p=0.006
  mean change from baseline in CSBMs per week: 3.6 CSBMs per week
[1]; escalating doses 1-100 mg
  opioid use: no increase in opioid use
  reversal of analgesia as measured by change in Numerical Pain Rating Scale (NPRS) scores: no reversal of analgesia

— patent US20120245193A1, “PER[…] μ OPIOID ANTAGONISTS” (Alkermes, Inc., priority 2011, published 2012)
